In PMC11121183, “Functional Characterization of a Spectrum of Genetic Variants in a Family with Succinic Semialdehyde Dehydrogenase Deficiency” (International Journal of Molecular Sciences, 2024):
Numbering of substitutions follows the chain as printed. Names and notes keep the numbering of the source. Blank lines part the entries; values can stand above or below the molecule they belong to.

Tests used:
[1] = target: T1, Succinic semialdehyde dehydrogenase (SSADH) (Homo sapiens, UniProt P51649, H180Y); assay: intrinsic fluorescence titration (excitation […] nm); CD and Tm shift of about […] °C in support; format: binding
T1 construct: gene ALDH5A1; recombinant SSADH, amino acids 48–535, N-terminal His-tag
T1 sequence (P51649 48-535 H180Y): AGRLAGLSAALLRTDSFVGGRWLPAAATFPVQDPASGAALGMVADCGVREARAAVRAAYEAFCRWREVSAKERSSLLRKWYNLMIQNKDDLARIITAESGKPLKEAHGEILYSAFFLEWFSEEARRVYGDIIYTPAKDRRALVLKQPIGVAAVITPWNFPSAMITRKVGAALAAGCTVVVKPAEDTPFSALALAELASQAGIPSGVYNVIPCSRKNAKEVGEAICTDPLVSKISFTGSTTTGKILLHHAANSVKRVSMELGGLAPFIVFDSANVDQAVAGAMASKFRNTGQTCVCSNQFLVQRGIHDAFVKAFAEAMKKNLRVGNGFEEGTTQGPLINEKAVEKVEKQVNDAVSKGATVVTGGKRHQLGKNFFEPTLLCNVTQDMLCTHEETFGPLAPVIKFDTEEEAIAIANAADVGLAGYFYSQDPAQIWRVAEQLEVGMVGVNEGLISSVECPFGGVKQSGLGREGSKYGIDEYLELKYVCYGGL

[2] = target: T2, Succinic semialdehyde dehydrogenase (SSADH) (Homo sapiens, UniProt P51649, H180Y/N255D); assay: intrinsic fluorescence titration (excitation […] nm); format: binding
T2 construct: gene ALDH5A1; recombinant SSADH, amino acids 48–535, N-terminal His-tag
T2 sequence (P51649 48-535 H180Y/N255D): T1 sequence (P51649 48-535 H180Y) with N208D

[3] = target: T3, Succinic semialdehyde dehydrogenase (SSADH) (Homo sapiens, UniProt P51649); assay: intrinsic fluorescence titration (excitation […] nm); CD and Tm shift of about […] °C in support; format: binding
T3 construct: gene ALDH5A1; recombinant SSADH, amino acids 48–535, N-terminal His-tag
T3 sequence (P51649 48-535): T1 sequence (P51649 48-535 H180Y) with Y133H

[4] = target: T3, Succinic semialdehyde dehydrogenase (SSADH); assay: purified enzyme turnover, NADH formation at […] nm ([…] SSA, […] NAD+); format: biochemical
[5] = target: T1, Succinic semialdehyde dehydrogenase (SSADH); assay: as above; format: biochemical
[6] = target: the molecule itself; assay: SEC; Superdex 200 (10/300), 100 mM potassium phosphate, 150 mM NaCl, pH 8; 0.1 to 5 mg/mL protein loaded; 280 nm signal

B1: Succinic semialdehyde dehydrogenase (SSADH), wildtype, recombinant (amino acids 48-535) (enzyme, human, UniProt P51649-1 48-535, looked up)
chain: T1 sequence (P51649 48-535 H180Y) with Y133H
notes: No thrombin cleavage of the His-tag is described; also called WT SSADH; WT; source: E. coli BL21, purified (HisTrap, single step)
stoichiometry N [6]: 4

B2: Succinic semialdehyde dehydrogenase (SSADH) His180Tyr variant, recombinant (amino acids 48-535) (enzyme, human, UniProt P51649-1 48-535, looked up)
chain: T1 sequence (P51649 48-535 H180Y)
notes: No thrombin cleavage of the His-tag is described; also called H180Y; rs2760118 variant; source: E. coli BL21, purified (HisTrap, single step)
stoichiometry N [6]: 4

Other lines, results leading:

Kd [1]: 3 ± 1 µM
Kd [2]: 33 ± 13 µM
Kd [3]: 2.8 ± 0.3 µM
Molecule: NC(=O)c1ccc[n+]([C@@H]2O[C@H](COP(=O)([O-])OP(=O)(O)OC[C@H]3O[C@@H](n4cnc5c(N)ncnc54)[C@H](O)[C@@H]3O)[C@@H](O)[C@H]2O)c1 [NAD+]

purified enzyme turnover, NADH formation at 340 nm (10 μM SSA, 500 μM NAD+) [4]: 65 s⁻¹
purified enzyme turnover, NADH formation at 340 nm (10 μM SSA, 500 μM NAD+) [5]: 54 s⁻¹
Molecule: O=CCCC(=O)O [Succinic semialdehyde]
